Measured values published in PubChem BioAssay (NCI).
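All cell lines were grown in 96-well plates and treated with compound for 48 hours. GI50 = concentration required for 50% inhibition of growth. At the TGI there is no net growth.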

Tests used:
Assay in all cases: NCI tumour cell line growth inhibition, 48 h
[1] = system: HT29 colon
[2] = system: MOLT-4 leukemia
[3] = system: IGROV1 ovarian
[4] = system: HOP-62 NSCLC
[5] = system: BT-549 breast
[6] = system: NCI-H226 lung
[7] = system: KM12 colon
[8] = system: TK-10 renal
[9] = system: NCI-H460 lung
[10] = system: OVCAR-4 ovarian
[11] = system: SK-MEL-2 melanoma
[12] = system: UO-31 renal
[13] = system: RXF 393 renal
[14] = system: MCF7 breast
[15] = system: OVCAR-5 ovarian
[16] = system: SK-MEL-5 melanoma
[17] = system: UACC-62 melanoma
[18] = system: OVCAR-8 ovarian
[19] = system: SK-OV-3 ovarian
[20] = system: LOX IMVI melanoma
[21] = system: HCT-15 colon
[22] = system: MDA-MB-231 breast
[23] = system: U251 CNS
[24] = system: CCRF-CEM leukemia
[25] = system: EKVX NSCLC
[26] = system: SF-268 CNS
[27] = system: PC-3 prostate
[28] = system: HCC-2998 colon

## CC(C)C[C@H]1C(=O)O[C@H](C(C)C)C(=O)N(C)[C@@H](C(C)C)C(=O)O[C@H](C(C)C)C(=O)N(C)[C@@H](C(C)C)C(=O)O[C@H](C(C)C)C(=O)N1C
[1]
  GI50: 3.4 µM
  TGI: > 10 µM
[2]
  GI50: 3.27 µM
  TGI: > 10 µM
[3]
  GI50: 4.46 µM
  TGI: > 10 µM
[4]
  GI50: 2.82 µM
  TGI: > 10 µM
[5]
  GI50: 3.43 µM
  TGI: > 10 µM
[6]
  GI50: 4.01 µM
  TGI: > 10 µM
[7]
  GI50: 3.25 µM
  TGI: > 10 µM
[8]
  GI50: 3.27 µM
  TGI: > 10 µM
[9]
  GI50: 3.14 µM
  TGI: > 10 µM
[10]
  GI50: 2.37 µM
  TGI: > 10 µM
[11]
  GI50: 3.04 µM
  TGI: > 10 µM
[12]
  GI50: 1.81 µM
  TGI: 7.69 µM
[13]
  GI50: 3.33 µM
  TGI: > 10 µM
[14]
  GI50: 2.82 µM
  TGI: > 10 µM
[15]
  GI50: 2.88 µM
  TGI: > 10 µM
[16]
  GI50: 1.87 µM
  TGI: 4.05 µM
[17]
  GI50: 3.47 µM
  TGI: > 10 µM
[18]
  GI50: 3.17 µM
  TGI: > 10 µM
[19]
  GI50: 2.21 µM
  TGI: 6.05 µM
[20]
  GI50: 3.19 µM
  TGI: > 10 µM
[21]
  GI50: 3.05 µM
  TGI: > 10 µM
[22]
  GI50: 2.65 µM
  TGI: 8.22 µM
[23]
  GI50: 3.51 µM
  TGI: > 10 µM
[24]
  GI50: 3.5 µM
  TGI: > 10 µM
[25]
  GI50: 3.1 µM
  TGI: > 10 µM
[26]
  GI50: 3.71 µM
  TGI: > 10 µM
[27]
  GI50: 3.15 µM
  TGI: > 10 µM
[28]
  GI50: 3.9 µM
  TGI: > 10 µM
